Measured values from the supplement of paper PMC10307832.

What was measured:
Experiment in all cases: relative viability (nuclei count vs DMSO), 5 days (fraction); higher = more cells survive
GSK-J4 + Olaparib = compound: CCOC(=O)CCNc1cc(N2CCc3ccccc3CC2)nc(-c2ccccn2)n1 [GSK-J4] + O=C(c1cc(Cc2n[nH]c(=O)c3ccccc23)ccc1F)N1CCN(C(=O)C2CC2)CC1 [Olaparib] (partner 8 µM)
Summary of the method: (§1)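 Values are medians from duplicate plates. Each reflects relative viability, defined as the nuclei count of treated wells over that of vehicle wells. Lung cancer cell lines in 1536-well plates were pin-tool dosed one day after seeding with one drug alone or with a fixed anchor-drug dose plus five library-drug doses (not always all listed) in √10 steps, then fixed, stained and imaged at 4× after 5 days.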

AZ3146 + Palbociclib = compound: CN1CCC(CC1)OC2=CC(=C(C=C2)NC3=NC=C4C(=N3)N(C(=O)N4C)C5CCCC5)OC [AZ3146] + CC(=O)c1c(C)c2cnc(Nc3ccc(N4CCNCC4)cn3)nc2n(C2CCCC2)c1=O [Palbociclib] (partner 0.5 µM)
Summary of the method: as §1

AZ3146 + Navitoclax = compound: CN1CCC(CC1)OC2=CC(=C(C=C2)NC3=NC=C4C(=N3)N(C(=O)N4C)C5CCCC5)OC [AZ3146] + CC1(C)CCC(c2ccc(Cl)cc2)=C(CN2CCN(c3ccc(C(=O)NS(=O)(=O)c4ccc(N[C@H](CCN5CCOCC5)CSc5ccccc5)c(S(=O)(=O)C(F)(F)F)c4)cc3)CC2)C1 [Navitoclax] (partner 0.5 µM)
Summary of the method: as §1

AZ3146 + Lapatinib = compound: CN1CCC(CC1)OC2=CC(=C(C=C2)NC3=NC=C4C(=N3)N(C(=O)N4C)C5CCCC5)OC [AZ3146] + CS(=O)(=O)CCNCc1ccc(-c2ccc3ncnc(Nc4ccc(OCc5cccc(F)c5)c(Cl)c4)c3c2)o1 [Lapatinib] (partner 2 µM)
Summary of the method: as §1

UMC-11
relative viability (GSK-J4 + Olaparib; first compound 0.5 µM): 0.364
relative viability (GSK-J4 + Olaparib; first compound 1.581 µM): 0.324
relative viability (GSK-J4 + Olaparib; first compound 5 µM): 0.299
relative viability (GSK-J4 + Olaparib; first compound 15.81 µM): 0.353
relative viability (GSK-J4 + Olaparib; first compound 50 µM): 0.272
relative viability (AZ3146 + Palbociclib; first compound 0.08 µM): 0.267
relative viability (AZ3146 + Palbociclib; first compound 0.253 µM): 0.342
relative viability (AZ3146 + Palbociclib; first compound 0.8 µM): 0.335
relative viability (AZ3146 + Palbociclib; first compound 2.53 µM): 0.303
relative viability (AZ3146 + Palbociclib; first compound 8 µM): 0.306
relative viability (AZ3146 + Navitoclax; first compound 0.08 µM): 0.32
relative viability (AZ3146 + Navitoclax; first compound 0.253 µM): 0.27
relative viability (AZ3146 + Navitoclax; first compound 0.8 µM): 0.302
relative viability (AZ3146 + Navitoclax; first compound 2.53 µM): 0.312
relative viability (AZ3146 + Navitoclax; first compound 8 µM): 0.252
relative viability (AZ3146 + Lapatinib; first compound 0.08 µM): 0.793
relative viability (AZ3146 + Lapatinib; first compound 0.253 µM): 0.963
relative viability (AZ3146 + Lapatinib; first compound 0.8 µM): 0.99
relative viability (AZ3146 + Lapatinib; first compound 2.53 µM): 0.978
relative viability (AZ3146 + Lapatinib; first compound 8 µM): 0.531
